Experimental data: US8895561B2, “Compounds and methods for treating candidiasis and aspergillus infections” (Cellceutix Corporation, priority 2012, dated 2014)
Values after ≈ are worked out from the molar mass of the structure shown. Read-outs that look alike come from different tables or passages of the source.

How the values were obtained:
C. albicans GDH2346 = assay: Candida IC50, vegetative cells, by OD600 and fluorescence; assay type: cell-based; conditions: Candida albicans, GDH2346; vegetative cells; read-out: CA (Candida IC50)
Description: Candida IC50s were determined by OD600 and fluorescence from vegetative cells and by MTS viability assay in the hyphal state. MICs were determined using a broth microdilution assay under standard CLSI conditions Bacteria strains: E. coli 25922 (EC), S. aureus 27660 (SA), E. faecalis 29212 (EF), P. aeruginosa 10145 (PA), and K. pneumoniae 13883 (KP). Cytotoxicity (EC50) was determined against mouse 3T3 fibroblasts, human transformed liver HepG2 cells, and human oral keratinocyte cell line, OKF6/TERT using an MTS viability assay. Candida IC50s<10 μg/mL, MICs<5 μg/mL and cytotoxicity EC50s>100 μM are indicated in green. MICs>5 μg/mL and cytotoxicity EC50s<100 μM are indicated in red. Candida IC50s (CA) were determined by OD600 and fluorescence from vegetative cells. MICs were determined using a broth microdilution assay under standard CLSI conditions Bacteria strains: E. coli 25922 (EC), S. aureus 27660 (SA), E. faecalis 29212 (EF), P. aeruginosa 10145 (PA), and K. pneumoniae 13883 (KP). Cytotoxicity (EC50) was determined against mouse 3T3 fibroblasts and human transformed liver HepG2 cells using an MTS viability assay. For determination of anti-Candida IC50s, the method was modified by using RPMI/MOPS buffer pH 6.3 and by addition of FDGlu, a substrate for the yeast enzyme exoglucanase which is secreted during cell growth. This provides a fluorescent readout for cell growth which was used in addition to the traditional optical density measure of growth. OD600 and fluorescence were determined at 24 and 48 hours and the average of all 4 reads was used for the final IC50 determination.

[1] = Cytotoxicity, MTS viability assay; assay type: cell-based, human
Description: (§1) Candida IC50s were determined by OD600 and fluorescence from vegetative cells and by MTS viability assay in the hyphal state. MICs were determined using a broth microdilution assay under standard CLSI conditions Bacteria strains: E. coli 25922 (EC), S. aureus 27660 (SA), E. faecalis 29212 (EF), P. aeruginosa 10145 (PA), and K. pneumoniae 13883 (KP). Cytotoxicity (EC50) was determined against mouse 3T3 fibroblasts, human transformed liver HepG2 cells, and human oral keratinocyte cell line, OKF6/TERT using an MTS viability assay. Candida IC50s<10 μg/mL, MICs<5 μg/mL and cytotoxicity EC50s>100 μM are indicated in green. MICs>5 μg/mL and cytotoxicity EC50s<100 μM are indicated in red.
Candida IC50s (CA) were determined by OD600 and fluorescence from vegetative cells. MICs were determined using a broth microdilution assay under standard CLSI conditions Bacteria strains: E. coli 25922 (EC), S. aureus 27660 (SA), E. faecalis 29212 (EF), P. aeruginosa 10145 (PA), and K. pneumoniae 13883 (KP). Cytotoxicity (EC50) was determined against mouse 3T3 fibroblasts and human transformed liver HepG2 cells using an MTS viability assay.
CLSI conditions Bacteria strains: clinical isolates; yeast strains: C. dubliniensis (NCPF3949), C. glabrata (ATCC 90030), C. krusei (ATCC 6258), C. parapsilosis (ATCC 22019), and C. tropicalis (ATCC 750). Cytotoxicity (EC50) was determined against mouse 3T3 fibroblasts, human transformed liver HepG2 cells, and human oral keratinocyte cell line, OKF6/TERT using an MTS viability assay.

P. aeruginosa 10145 = assay: Bacterial MIC, broth microdilution, CLSI; assay type: cell-based; conditions: Pseudomonas aeruginosa, 10145; read-out: PA (MIC)
Description: as §1, with “red. Candida IC50s (CA) were determined by OD600 and fluorescence from vegetative cells. MICs were determined using a broth microdilution assay under standard CLSI conditions Bacteria strains: E. coli 25922 (EC), S. aureus 27660 (SA), E. faecalis 29212 (EF), P. aeruginosa 10145 (PA), and K. pneumoniae 13883 (KP). Cytotoxicity (EC50) was determined against mouse 3T3 fibroblasts and human transformed liver HepG2 cells using an MTS viability assay.” for “red.”

E. faecalis 29212 = assay: Bacterial MIC, broth microdilution, CLSI; assay type: cell-based; conditions: Enterococcus faecalis, 29212; read-out: EF (MIC)
Description: as §1, with “red. Candida IC50s (CA) were determined by OD600 and fluorescence from vegetative cells. MICs were determined using a broth microdilution assay under standard CLSI conditions Bacteria strains: E. coli 25922 (EC), S. aureus 27660 (SA), E. faecalis 29212 (EF), P. aeruginosa 10145 (PA), and K. pneumoniae 13883 (KP). Cytotoxicity (EC50) was determined against mouse 3T3 fibroblasts and human transformed liver HepG2 cells using an MTS viability assay.” for “red.”

S. aureus 27660 = assay: Bacterial MIC, broth microdilution, CLSI; assay type: cell-based; conditions: Staphylococcus aureus, 27660; read-out: SA (MIC)
Description: as §1, with “red. Candida IC50s (CA) were determined by OD600 and fluorescence from vegetative cells. MICs were determined using a broth microdilution assay under standard CLSI conditions Bacteria strains: E. coli 25922 (EC), S. aureus 27660 (SA), E. faecalis 29212 (EF), P. aeruginosa 10145 (PA), and K. pneumoniae 13883 (KP). Cytotoxicity (EC50) was determined against mouse 3T3 fibroblasts and human transformed liver HepG2 cells using an MTS viability assay.” for “red.”

E. coli 25922 = assay: Bacterial MIC, broth microdilution, CLSI; assay type: cell-based; conditions: Escherichia coli, 25922; read-out: EC (MIC)
Description: as §1, with “red. Candida IC50s (CA) were determined by OD600 and fluorescence from vegetative cells. MICs were determined using a broth microdilution assay under standard CLSI conditions Bacteria strains: E. coli 25922 (EC), S. aureus 27660 (SA), E. faecalis 29212 (EF), P. aeruginosa 10145 (PA), and K. pneumoniae 13883 (KP). Cytotoxicity (EC50) was determined against mouse 3T3 fibroblasts and human transformed liver HepG2 cells using an MTS viability assay.” for “red.”

[2] = human, HepG2 cells (transformed liver), read-out: HepG2 (cytotoxicity EC50)
[3] = mouse, 3T3 fibroblasts, read-out: 3T3 (cytotoxicity EC50)

Row | Structure (SMILES) | IC50 (C. albicans GDH2346) [µg/mL] | MIC (P. aeruginosa 10145) [µg/mL] | MIC (E. faecalis 29212) [µg/mL] | MIC (S. aureus 27660) [µg/mL] | MIC (E. coli 25922) [µg/mL] | EC50 [1, 2] [µM] | EC50 [1, 3] [µM]
1 | NCc1cccc(-c2ccc3[nH]c4ccc(-c5cccc(CN)c5)cc4c3c2)c1 [Compound 117] | 3.1 (≈ 8.21 µM) | – | – | – | – | – | –
2 | N=C(N)NCCCCCc1cccc(-c2ccc3c4ccc(-c5cccc(CCCNC(=N)N)c5)cc4n(CCCNC(=N)N)c3c2)c1 [Compound 142] | 1.65 (≈ 2.56 µM) | 25 (≈ 38.8 µM) | 6.25 (≈ 9.69 µM) | 1.56 (≈ 2.42 µM) | 3.13 (≈ 4.85 µM) | 100 | 131
3 | NCCCOc1cc(OCCCN)cc(-c2ccc3c4ccc(-c5cc(OCCCN)cc(OCCCN)c5)cc4n(CCCN)c3c2)c1 [Compound 143] | 6.48 (≈ 9.69 µM) | 50 (≈ 74.8 µM) | 1.56 (≈ 2.33 µM) | 0.39 (≈ 0.583 µM) | 3.13 (≈ 4.68 µM) | 140 | 222
4 | CCn1c2ccc(-c3cc(OCCCN)cc(OCCCN)c3)cc2c2cc(-c3cc(OCCCN)cc(OCCCN)c3)ccc21 [Compound 147] | – | 6.25 (≈ 9.77 µM) | 0.39 (≈ 0.61 µM) | 0.098 (≈ 0.153 µM) | 1.56 (≈ 2.44 µM) | – | –
5 | CCn1c2ccc(-c3cc(C(=O)NCCN)cc(C(=O)NCCN)c3)cc2c2cc(-c3cc(C(=O)NCCN)cc(C(=O)NCCN)c3)ccc21 [Compound 148] | 8.74 (≈ 12.6 µM) | > 50 | > 50 | 3.13 (≈ 4.52 µM) | 25 (≈ 36.1 µM) | 312 | 450
6 | NCCCOc1cccc(-c2ccc3c4ccc(-c5cccc(OCCCN)c5)cc4n(CCCN)c3c2)c1 [Compound 150] | 3.34 (≈ 6.39 µM) | 3.13 (≈ 5.99 µM) | 1.56 (≈ 2.98 µM) | 0.049 (≈ 0.0937 µM) | 0.78 (≈ 1.49 µM) | 58 | 54
7 | NCCCOc1ccc(-c2ccc3c4ccc(-c5ccc(OCCCN)cc5)cc4n(CCCN)c3c2)cc1 [Compound 152] | 3.77 (≈ 7.21 µM) | 3.13 (≈ 5.99 µM) | 1.56 (≈ 2.98 µM) | 0.39 (≈ 0.746 µM) | 1.56 (≈ 2.98 µM) | 12 | 34
8 | CCn1c2ccc(-c3cccc(N(CCN)CCN)c3)cc2c2cc(-c3cccc(N(CCN)CCN)c3)ccc21 [Compound 155] | 2.63 (≈ 4.78 µM) | 12.5 (≈ 22.7 µM) | > 50 | 0.39 (≈ 0.709 µM) | 12.5 (≈ 22.7 µM) | – | –
9 | NCCN(CCN)c1cccc(-c2ccc3[nH]c4ccc(-c5cccc(N(CCN)CCN)c5)cc4c3c2)c1 [Compound 156] | 1.94 (≈ 3.72 µM) | 12.5 (≈ 24 µM) | > 50 | 1.56 (≈ 2.99 µM) | 1.56 (≈ 2.99 µM) | > 1000 | 487
10 | NCCN(CCN)Cc1cccc(-c2ccc3[nH]c4ccc(-c5cccc(CN(CCN)CCN)c5)cc4c3c2)c1 [Compound 158] | 17.5 (≈ 31.8 µM) | 25 (≈ 45.5 µM) | > 50 | 1.56 (≈ 2.84 µM) | 1.56 (≈ 2.84 µM) | 615 | 179
11 | N=C(N)NCCCn1c2cc(-c3ccc(CCNC(=N)N)c(CCNC(=N)N)c3)ccc2c2ccc(-c3ccc(CCNC(=N)N)c(CCNC(=N)N)c3)cc21 [Compound 160] | 1.48 (≈ 1.95 µM) | 6.25 (≈ 8.23 µM) | 3.13 (≈ 4.12 µM) | 1.95 (≈ 2.57 µM) | 1.56 (≈ 2.06 µM) | 28 | 28
12 | NCCCn1c2cc(-c3cc(CCN)cc(CCN)c3)ccc2c2ccc(-c3cc(CCN)cc(CCN)c3)cc21 [Compound 161] | 11.8 (≈ 21.5 µM) | 50 (≈ 91.1 µM) | > 50 | 6.25 (≈ 11.4 µM) | 1.56 (≈ 2.84 µM) | 466 | 356
13 | N=C(N)NCCCn1c2cc(-c3cc(CCNC(=N)N)cc(CCNC(=N)N)c3)ccc2c2ccc(-c3cc(CCNC(=N)N)cc(CCNC(=N)N)c3)cc21 [Compound 162] | 3.12 (≈ 4.11 µM) | 3.13 (≈ 4.12 µM) | 12.5 (≈ 16.5 µM) | 0.39 (≈ 0.514 µM) | 1.56 (≈ 2.06 µM) | 273 | 49
14 | N=C(N)NCCCOc1cc(OCCCNC(=N)N)cc(-c2ccc3c(c2)c2cc(-c4cc(OCCCNC(=N)N)cc(OCCCNC(=N)N)c4)ccc2n3CCCNC(=N)N)c1 [Compound 163] | 1.79 (≈ 2.04 µM) | 50 (≈ 56.9 µM) | 3.13 (≈ 3.56 µM) | 3.13 (≈ 3.56 µM) | 3.13 (≈ 3.56 µM) | 113 | 31

More lines, main results first:

Row | IC50 (C. albicans GDH2346) [µg/mL] | MIC (P. aeruginosa 10145) [µg/mL] | MIC (E. faecalis 29212) [µg/mL] | MIC (S. aureus 27660) [µg/mL] | MIC (E. coli 25922) [µg/mL] | Structure (SMILES) | EC50 [1, 2] [µM] | EC50 [1, 3] [µM]
15 | > 100 | – | – | – | – | NCCCn1c2ccccc2c2ccccc21 [Compound 139] | – | –
16 | 3.58 (≈ 7.51 µM) | 3.13 (≈ 6.57 µM) | 3.13 (≈ 6.57 µM) | 0.195 (≈ 0.409 µM) | 0.78 (≈ 1.64 µM) | NCCCc1cccc(-c2ccc3c4ccc(-c5cccc(CCCN)c5)cc4n(CCN)c3c2)c1 [Compound 140] | 99 | 159
17 | – | 100 (≈ 262 µM) | – | 12.5 (≈ 32.7 µM) | 12.5 (≈ 32.7 µM) | NCCCn1c2cc(Br)ccc2c2ccc(Br)cc21 [Compound 141] | 62 | 107
18 | 3.95 (≈ 8.54 µM) | 3.13 (≈ 6.77 µM) | 0.195 (≈ 0.421 µM) | 0.098 (≈ 0.212 µM) | 3.13 (≈ 6.77 µM) | NCCCn1c2cc(-c3cccc(CCN)c3)ccc2c2ccc(-c3cccc(CCN)c3)cc21 [Compound 144] | 188 | 80
19 | 23.9 (≈ 53.6 µM) | 50 (≈ 112 µM) | 3.13 (≈ 7.01 µM) | 25 (≈ 56 µM) | > 50 | NCCCOc1cc(OCCCN)cc(-c2ccc3c(c2)c2ccccc2n3CCCN)c1 [Compound 145] | 790 | > 1000
20 | 44.6 (≈ 84.9 µM) | 12.5 (≈ 23.8 µM) | 0.39 (≈ 0.742 µM) | 0.39 (≈ 0.742 µM) | 50 (≈ 95.1 µM) | NCCCOc1cc(OCCCN)cc(-c2ccc3c4ccc(Br)cc4n(CCCN)c3c2)c1 [Compound 146] | 341 | 307
21 | > 100 | > 100 | 1.56 (≈ 3.82 µM) | 0.049 (≈ 0.12 µM) | 3.13 (≈ 7.66 µM) | NCCCn1c2cc(-c3cccc(O)c3)ccc2c2ccc(-c3cccc(O)c3)cc21 [Compound 149] | 20 | 29
22 | 3.85 (≈ 7.78 µM) | 6.25 (≈ 12.6 µM) | 6.25 (≈ 12.6 µM) | 0.195 (≈ 0.394 µM) | 3.13 (≈ 6.33 µM) | NCCCn1c2cc(-c3cccc(OCCN)c3)ccc2c2ccc(-c3cccc(OCCN)c3)cc21 [Compound 151] | 78 | 56
23 | – | 100 (≈ 246 µM) | 12.5 (≈ 30.7 µM) | 1.56 (≈ 3.84 µM) | 12.5 (≈ 30.7 µM) | NCCCn1c2cc(-c3cccc(N)c3)ccc2c2ccc(-c3cccc(N)c3)cc21 [Compound 153] | 65 | 46
